The target in this experiment is Telomerase reverse transcriptase (Homo sapiens, UniProt O14746). Nature of the experiment: Inhibitory concentration against human telomerase.

The text below walks through data of ChEMBL document CHEMBL1130081, “Inhibition of human telomerase by a G-quadruplex-interactive compound” (J Med Chem, 1997).

Telomerase reverse transcriptase, sequence (O14746 whole entry): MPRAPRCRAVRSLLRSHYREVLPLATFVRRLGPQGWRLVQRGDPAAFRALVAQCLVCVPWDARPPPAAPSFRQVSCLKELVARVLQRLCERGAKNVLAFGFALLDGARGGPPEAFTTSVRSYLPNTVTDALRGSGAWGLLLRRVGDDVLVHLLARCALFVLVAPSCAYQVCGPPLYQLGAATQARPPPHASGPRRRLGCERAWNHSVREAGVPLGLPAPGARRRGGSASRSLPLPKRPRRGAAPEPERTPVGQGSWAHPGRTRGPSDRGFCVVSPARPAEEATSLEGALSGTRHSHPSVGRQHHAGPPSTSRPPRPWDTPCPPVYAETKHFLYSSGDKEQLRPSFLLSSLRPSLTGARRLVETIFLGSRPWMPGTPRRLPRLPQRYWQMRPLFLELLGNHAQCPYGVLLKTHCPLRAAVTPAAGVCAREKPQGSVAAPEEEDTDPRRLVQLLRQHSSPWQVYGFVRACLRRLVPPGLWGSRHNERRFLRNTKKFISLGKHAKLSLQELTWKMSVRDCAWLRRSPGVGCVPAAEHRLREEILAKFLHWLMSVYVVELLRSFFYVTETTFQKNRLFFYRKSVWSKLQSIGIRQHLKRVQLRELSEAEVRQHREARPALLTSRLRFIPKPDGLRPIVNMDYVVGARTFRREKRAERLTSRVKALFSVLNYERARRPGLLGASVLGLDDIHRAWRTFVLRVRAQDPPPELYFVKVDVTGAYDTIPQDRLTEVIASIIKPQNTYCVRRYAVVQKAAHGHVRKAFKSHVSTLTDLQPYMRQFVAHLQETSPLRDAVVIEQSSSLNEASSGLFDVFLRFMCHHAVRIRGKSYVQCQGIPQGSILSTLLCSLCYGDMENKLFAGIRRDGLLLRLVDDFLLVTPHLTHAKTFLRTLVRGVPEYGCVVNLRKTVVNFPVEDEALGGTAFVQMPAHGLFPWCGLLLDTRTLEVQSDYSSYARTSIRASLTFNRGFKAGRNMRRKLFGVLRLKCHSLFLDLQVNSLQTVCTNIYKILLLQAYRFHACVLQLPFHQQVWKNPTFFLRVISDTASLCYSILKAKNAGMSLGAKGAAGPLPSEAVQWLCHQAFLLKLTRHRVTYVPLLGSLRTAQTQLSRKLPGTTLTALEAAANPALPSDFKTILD

In the case of `C[N+]1(CCC(=O)Nc2ccc3c(c2)C(=O)c2ccc(NC(=O)CC[N+]4(C)CCCCC4CO)cc2C3=O)CCCCC1CO` (stereo unspecified), the midpoint of inhibition, the IC50, lay at 23 µM. In other words, the double-digit micromolar range.
